According to ChEMBL document CHEMBL5550200, “Back-Pocket Optimization of 2-Aminopyrimidine-Based Macrocycles Leads to Potent EPHA2/GAK Kinase Inhibitors” (J Med Chem, 2024):

Columns and labels:
[1] = molecular target: Fibroblast growth factor receptor 1 (Homo sapiens, UniProt P11362)
Description: Induction of stabilization of recombinant FGFR1 (unknown origin) assessed as change in melting temperature by differential scanning fluorimetry assay

[2] = molecular target: T1, Ephrin type-B receptor 3 (Homo sapiens) (UniProt P54753); experiment: Induction of stabilization of recombinant EPHB3 (unknown origin) assessed as change in melting temperature by differential scanning fluorimetry assay
T1 sequence (whole entry): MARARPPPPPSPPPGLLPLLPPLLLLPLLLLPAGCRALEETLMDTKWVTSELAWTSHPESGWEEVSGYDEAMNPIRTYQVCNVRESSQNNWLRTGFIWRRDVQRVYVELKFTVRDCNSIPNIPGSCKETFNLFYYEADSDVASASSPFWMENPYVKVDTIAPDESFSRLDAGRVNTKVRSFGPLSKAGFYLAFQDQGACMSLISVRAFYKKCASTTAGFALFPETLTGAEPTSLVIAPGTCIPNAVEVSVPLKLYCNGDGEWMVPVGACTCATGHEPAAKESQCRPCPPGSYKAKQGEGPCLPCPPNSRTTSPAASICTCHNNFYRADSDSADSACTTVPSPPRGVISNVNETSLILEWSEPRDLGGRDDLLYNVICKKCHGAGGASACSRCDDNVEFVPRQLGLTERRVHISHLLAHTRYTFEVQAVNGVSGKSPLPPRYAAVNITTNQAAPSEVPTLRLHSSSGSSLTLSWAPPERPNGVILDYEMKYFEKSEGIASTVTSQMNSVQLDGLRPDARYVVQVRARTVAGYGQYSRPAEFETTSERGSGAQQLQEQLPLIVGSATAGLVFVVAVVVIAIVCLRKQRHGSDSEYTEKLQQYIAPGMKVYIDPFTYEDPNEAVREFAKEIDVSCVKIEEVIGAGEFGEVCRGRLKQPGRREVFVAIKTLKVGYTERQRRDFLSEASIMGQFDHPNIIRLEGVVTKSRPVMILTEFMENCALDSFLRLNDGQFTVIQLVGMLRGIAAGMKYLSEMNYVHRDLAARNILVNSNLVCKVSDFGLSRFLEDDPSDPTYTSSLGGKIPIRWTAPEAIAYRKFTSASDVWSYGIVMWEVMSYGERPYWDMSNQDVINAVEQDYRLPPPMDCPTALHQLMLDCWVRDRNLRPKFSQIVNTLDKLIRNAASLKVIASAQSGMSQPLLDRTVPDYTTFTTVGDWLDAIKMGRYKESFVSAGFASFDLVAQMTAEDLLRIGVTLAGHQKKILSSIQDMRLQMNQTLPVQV

Ephrin type-A receptor 4 = Ephrin type-A receptor 4 (Homo sapiens, UniProt P54764); experiment: Induction of stabilization of recombinant EPHA4 (unknown origin) assessed as change in melting temperature by differential scanning fluorimetry assay
[3] = molecular target: Ephrin type-A receptor 7 (Homo sapiens) (UniProt Q15375); experiment: Induction of stabilization of recombinant EPHA7 (unknown origin) assessed as change in melting temperature by differential scanning fluorimetry assay
Chain of Ephrin type-A receptor 7 (Homo sapiens) (Q15375 28-998 limits assumed): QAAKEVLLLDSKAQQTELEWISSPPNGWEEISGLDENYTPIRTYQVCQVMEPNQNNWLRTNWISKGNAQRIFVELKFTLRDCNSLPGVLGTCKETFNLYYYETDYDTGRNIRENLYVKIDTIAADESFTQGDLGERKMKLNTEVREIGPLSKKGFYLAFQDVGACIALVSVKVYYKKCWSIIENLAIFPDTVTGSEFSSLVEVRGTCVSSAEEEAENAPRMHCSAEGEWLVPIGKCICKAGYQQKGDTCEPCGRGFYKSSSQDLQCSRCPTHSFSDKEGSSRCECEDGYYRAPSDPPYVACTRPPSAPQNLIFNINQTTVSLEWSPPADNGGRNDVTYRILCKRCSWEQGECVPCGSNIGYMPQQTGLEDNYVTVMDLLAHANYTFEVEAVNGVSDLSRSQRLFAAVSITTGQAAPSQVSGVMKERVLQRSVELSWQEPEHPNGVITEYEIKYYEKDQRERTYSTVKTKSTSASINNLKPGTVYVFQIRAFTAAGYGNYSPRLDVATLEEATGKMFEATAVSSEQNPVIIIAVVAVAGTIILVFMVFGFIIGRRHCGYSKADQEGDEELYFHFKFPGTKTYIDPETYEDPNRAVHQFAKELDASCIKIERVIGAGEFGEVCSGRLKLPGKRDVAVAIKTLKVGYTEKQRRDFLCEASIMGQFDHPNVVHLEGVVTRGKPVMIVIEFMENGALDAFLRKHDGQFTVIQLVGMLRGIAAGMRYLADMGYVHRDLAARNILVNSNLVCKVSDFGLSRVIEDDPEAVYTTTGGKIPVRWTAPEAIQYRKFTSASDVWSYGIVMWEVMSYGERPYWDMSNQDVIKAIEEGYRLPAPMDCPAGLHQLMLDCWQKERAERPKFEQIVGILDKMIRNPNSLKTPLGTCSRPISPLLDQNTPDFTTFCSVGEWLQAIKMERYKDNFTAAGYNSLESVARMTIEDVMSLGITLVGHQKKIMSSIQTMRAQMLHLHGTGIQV

[4] = molecular target: Vascular endothelial growth factor receptor 1 (Homo sapiens, UniProt P17948); experiment: Induction of stabilization of recombinant FLT1 (unknown origin) assessed as change in melting temperature by differential scanning fluorimetry assay
Chain of Vascular endothelial growth factor receptor 1 (P17948 whole entry): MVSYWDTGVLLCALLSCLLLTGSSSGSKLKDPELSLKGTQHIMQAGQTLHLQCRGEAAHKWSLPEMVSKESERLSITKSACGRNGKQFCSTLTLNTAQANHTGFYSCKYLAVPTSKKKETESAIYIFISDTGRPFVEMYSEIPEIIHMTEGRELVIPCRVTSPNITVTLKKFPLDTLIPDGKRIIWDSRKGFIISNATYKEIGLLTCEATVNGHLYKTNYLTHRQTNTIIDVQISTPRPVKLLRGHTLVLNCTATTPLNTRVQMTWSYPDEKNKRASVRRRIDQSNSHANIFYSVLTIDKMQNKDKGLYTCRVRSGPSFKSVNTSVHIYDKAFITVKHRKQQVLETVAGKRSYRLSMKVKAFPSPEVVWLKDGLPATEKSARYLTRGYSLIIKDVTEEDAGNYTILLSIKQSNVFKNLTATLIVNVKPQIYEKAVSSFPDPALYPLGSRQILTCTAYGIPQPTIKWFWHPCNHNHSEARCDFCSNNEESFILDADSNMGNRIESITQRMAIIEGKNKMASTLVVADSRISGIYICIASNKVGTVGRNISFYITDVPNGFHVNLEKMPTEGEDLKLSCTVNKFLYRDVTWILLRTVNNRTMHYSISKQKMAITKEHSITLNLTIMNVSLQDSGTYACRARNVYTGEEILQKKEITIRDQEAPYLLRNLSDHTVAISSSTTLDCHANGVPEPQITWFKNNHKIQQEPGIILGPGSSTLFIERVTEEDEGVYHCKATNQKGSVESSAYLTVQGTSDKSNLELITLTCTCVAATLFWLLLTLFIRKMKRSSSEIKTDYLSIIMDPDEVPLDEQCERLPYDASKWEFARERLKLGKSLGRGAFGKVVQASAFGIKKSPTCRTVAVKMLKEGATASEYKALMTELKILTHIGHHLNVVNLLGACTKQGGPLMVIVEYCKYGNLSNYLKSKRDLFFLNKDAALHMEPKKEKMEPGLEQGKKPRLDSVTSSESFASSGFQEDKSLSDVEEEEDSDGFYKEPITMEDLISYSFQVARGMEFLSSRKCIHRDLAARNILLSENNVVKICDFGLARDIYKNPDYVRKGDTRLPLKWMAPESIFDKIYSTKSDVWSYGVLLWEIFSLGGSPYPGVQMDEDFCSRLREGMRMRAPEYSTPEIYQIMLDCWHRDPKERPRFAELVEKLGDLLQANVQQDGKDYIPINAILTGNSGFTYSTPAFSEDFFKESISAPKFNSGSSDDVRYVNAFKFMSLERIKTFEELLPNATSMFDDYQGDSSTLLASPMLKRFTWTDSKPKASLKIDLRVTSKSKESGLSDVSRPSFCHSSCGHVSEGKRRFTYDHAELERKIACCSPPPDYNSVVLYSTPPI

[5] = molecular target: Ephrin type-A receptor 5 (Homo sapiens) (UniProt P54756)
Chain of Ephrin type-A receptor 5 (Homo sapiens) (P54756 whole entry): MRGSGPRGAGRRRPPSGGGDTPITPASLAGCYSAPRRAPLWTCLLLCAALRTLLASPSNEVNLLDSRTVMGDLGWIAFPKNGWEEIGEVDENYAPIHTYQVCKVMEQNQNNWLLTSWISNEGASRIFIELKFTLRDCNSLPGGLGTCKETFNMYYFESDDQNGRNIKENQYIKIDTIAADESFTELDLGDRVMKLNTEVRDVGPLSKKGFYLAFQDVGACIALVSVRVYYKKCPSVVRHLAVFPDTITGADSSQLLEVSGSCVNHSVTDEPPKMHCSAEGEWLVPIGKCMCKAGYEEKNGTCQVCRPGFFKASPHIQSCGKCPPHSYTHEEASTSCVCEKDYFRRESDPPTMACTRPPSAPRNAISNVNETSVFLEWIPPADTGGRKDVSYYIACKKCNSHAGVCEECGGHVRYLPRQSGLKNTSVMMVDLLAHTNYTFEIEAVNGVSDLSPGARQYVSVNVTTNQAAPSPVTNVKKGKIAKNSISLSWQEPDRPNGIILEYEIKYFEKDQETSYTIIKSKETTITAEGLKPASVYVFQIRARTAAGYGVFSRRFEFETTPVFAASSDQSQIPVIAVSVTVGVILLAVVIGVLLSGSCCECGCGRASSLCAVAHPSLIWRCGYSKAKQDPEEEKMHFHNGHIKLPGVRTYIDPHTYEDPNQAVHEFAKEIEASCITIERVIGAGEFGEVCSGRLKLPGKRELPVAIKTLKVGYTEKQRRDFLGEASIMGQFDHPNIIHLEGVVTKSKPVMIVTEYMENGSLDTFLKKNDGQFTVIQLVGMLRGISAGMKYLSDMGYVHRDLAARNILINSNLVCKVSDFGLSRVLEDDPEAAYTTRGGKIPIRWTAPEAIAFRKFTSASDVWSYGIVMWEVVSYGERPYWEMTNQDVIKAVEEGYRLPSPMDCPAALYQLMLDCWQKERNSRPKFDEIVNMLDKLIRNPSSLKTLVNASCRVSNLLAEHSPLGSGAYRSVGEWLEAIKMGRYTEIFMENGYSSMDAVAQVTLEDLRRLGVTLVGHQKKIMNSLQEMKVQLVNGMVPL
Description: Induction of stabilization of recombinant EPHA5 (unknown origin) assessed as change in melting temperature by differential scanning fluorimetry assay

[6] = molecular target: T2, Ephrin type-B receptor 1 (Homo sapiens) (UniProt P54762); experiment: Induction of stabilization of recombinant EPHB1 (unknown origin) assessed as change in melting temperature by differential scanning fluorimetry assay
T2 sequence (whole entry): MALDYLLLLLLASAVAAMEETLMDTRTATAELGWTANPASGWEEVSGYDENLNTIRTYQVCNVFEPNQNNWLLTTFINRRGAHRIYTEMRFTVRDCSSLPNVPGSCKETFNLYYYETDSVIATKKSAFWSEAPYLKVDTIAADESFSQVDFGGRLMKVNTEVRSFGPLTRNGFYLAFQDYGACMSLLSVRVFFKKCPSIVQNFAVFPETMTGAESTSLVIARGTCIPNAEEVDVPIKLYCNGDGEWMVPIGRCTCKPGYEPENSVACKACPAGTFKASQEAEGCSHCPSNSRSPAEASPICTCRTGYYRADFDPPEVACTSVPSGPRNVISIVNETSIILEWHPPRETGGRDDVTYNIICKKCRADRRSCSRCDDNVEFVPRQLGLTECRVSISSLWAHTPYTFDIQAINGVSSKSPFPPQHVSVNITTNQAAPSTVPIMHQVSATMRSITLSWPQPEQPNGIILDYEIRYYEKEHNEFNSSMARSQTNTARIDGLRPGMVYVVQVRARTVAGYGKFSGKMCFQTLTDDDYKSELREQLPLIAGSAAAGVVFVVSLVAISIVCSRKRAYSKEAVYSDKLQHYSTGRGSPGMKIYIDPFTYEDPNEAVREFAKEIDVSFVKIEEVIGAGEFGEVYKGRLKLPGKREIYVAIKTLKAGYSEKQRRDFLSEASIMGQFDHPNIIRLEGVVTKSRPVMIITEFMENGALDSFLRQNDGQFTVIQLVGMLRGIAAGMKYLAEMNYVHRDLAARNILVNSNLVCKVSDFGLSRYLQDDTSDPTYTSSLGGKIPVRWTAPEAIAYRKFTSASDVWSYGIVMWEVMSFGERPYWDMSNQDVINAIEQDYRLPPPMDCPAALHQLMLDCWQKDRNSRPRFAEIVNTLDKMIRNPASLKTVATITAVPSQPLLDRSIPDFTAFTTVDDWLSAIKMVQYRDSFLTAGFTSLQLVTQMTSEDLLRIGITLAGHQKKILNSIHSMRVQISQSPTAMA

[7] = molecular target: Fibroblast growth factor receptor 2 (Homo sapiens) (UniProt P21802)
Chain of Fibroblast growth factor receptor 2 (Homo sapiens) (P21802 22-821 limits assumed): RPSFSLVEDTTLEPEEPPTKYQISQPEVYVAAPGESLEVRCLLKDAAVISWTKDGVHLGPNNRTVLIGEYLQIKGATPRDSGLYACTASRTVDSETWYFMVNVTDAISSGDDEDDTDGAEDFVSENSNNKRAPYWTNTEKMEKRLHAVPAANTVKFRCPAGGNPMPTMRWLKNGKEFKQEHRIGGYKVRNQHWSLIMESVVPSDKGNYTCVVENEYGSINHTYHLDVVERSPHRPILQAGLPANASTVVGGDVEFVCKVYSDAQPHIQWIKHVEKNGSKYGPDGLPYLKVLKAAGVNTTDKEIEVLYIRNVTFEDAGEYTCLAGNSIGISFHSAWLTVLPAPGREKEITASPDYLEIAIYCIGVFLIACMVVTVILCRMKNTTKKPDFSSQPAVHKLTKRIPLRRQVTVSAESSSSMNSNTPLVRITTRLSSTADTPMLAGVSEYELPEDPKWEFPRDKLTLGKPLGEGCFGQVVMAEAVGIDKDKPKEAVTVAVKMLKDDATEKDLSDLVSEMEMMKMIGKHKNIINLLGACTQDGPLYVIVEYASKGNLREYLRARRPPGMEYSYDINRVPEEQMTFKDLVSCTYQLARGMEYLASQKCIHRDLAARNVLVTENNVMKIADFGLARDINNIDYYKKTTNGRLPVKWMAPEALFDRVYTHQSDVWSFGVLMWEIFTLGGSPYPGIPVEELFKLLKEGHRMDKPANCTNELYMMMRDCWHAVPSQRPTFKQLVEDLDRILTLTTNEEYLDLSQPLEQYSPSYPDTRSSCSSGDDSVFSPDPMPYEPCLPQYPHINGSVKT
Description: Induction of stabilization of recombinant FGFR2 (unknown origin) assessed as change in melting temperature by differential scanning fluorimetry assay

Ephrin type-A receptor 2 = Ephrin type-A receptor 2 (Homo sapiens, UniProt P29317)
Chain of Ephrin type-A receptor 2 (P29317 whole entry): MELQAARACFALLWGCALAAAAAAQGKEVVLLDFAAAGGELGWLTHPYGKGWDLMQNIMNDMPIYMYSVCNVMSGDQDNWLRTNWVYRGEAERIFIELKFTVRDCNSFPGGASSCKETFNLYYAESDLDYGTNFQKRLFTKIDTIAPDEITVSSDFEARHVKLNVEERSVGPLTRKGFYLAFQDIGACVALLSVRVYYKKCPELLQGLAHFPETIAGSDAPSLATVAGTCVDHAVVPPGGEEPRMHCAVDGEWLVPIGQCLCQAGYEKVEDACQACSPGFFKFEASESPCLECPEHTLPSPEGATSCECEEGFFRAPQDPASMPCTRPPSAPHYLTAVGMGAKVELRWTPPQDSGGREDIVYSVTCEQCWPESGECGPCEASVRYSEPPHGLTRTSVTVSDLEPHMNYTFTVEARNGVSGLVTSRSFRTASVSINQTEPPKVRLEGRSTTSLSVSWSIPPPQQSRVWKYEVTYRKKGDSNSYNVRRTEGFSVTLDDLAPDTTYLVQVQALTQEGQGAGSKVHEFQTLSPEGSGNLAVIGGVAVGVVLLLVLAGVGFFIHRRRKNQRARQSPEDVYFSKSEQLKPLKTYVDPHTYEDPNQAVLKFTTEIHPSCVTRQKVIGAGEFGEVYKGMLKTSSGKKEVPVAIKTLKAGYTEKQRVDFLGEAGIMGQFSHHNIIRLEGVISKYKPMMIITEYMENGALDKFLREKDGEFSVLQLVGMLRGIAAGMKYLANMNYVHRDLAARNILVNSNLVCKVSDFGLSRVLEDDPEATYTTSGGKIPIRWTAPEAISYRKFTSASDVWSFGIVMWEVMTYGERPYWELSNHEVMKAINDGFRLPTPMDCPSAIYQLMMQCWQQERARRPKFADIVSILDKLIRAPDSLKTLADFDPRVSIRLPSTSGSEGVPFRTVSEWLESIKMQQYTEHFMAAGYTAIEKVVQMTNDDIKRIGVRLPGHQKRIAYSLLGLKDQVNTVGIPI
Description: Induction of stabilization of recombinant EPHA2 (D596 to G900 residues) (unknown origin) expressed in Escherichia coli rosetta BL21(D3)-R3-pRARE2 competent cells assessed as change in melting temperature by differential scanning fluorimetry assay

[8] = molecular target: T3, Cyclin-G-associated kinase (Homo sapiens) (UniProt O14976)
T3 sequence (whole entry): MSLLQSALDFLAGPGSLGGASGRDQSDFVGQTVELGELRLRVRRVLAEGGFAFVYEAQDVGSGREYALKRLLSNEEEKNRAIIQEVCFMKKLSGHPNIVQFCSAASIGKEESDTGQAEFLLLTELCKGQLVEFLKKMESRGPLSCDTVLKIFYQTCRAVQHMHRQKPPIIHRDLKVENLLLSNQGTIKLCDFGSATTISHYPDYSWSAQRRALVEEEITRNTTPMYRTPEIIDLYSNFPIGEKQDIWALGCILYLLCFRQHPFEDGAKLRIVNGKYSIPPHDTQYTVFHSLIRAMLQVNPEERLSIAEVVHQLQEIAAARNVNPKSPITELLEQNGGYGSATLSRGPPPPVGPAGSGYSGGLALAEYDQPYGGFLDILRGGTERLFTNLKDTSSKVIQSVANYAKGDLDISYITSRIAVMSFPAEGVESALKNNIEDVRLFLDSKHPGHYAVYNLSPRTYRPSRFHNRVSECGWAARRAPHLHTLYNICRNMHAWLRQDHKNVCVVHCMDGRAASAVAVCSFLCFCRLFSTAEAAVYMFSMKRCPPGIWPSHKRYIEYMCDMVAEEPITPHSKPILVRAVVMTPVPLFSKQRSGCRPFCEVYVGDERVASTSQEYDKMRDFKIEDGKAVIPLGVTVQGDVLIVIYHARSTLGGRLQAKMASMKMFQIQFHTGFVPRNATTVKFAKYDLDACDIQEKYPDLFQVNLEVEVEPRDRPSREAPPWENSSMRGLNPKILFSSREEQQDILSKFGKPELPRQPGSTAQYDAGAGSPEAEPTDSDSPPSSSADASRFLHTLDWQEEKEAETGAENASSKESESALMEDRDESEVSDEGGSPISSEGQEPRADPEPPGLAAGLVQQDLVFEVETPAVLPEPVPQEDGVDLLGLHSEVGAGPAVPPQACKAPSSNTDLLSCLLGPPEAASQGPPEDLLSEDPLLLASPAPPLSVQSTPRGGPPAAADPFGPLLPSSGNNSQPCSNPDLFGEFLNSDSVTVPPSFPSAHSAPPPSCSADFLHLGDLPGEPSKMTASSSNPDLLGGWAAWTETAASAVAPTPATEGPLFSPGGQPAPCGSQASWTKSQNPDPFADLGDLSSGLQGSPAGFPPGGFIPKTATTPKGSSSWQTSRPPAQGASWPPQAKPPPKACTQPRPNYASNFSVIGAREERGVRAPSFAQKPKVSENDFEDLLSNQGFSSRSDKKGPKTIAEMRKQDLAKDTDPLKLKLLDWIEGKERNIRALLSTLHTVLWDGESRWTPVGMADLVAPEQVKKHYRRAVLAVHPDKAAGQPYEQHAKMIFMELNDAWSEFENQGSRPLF
Description: Induction of stabilization of recombinant GAK (unknown origin) assessed as change in melting temperature by differential scanning fluorimetry assay

Row | deltaTm [1] | deltaTm [2] | deltaTm (Ephrin type-A receptor 4) | deltaTm [3] | deltaTm [4] | deltaTm [5] | deltaTm [6] | deltaTm [7] | deltaTm (Ephrin type-A receptor 2) | deltaTm [8] | SMILES
1 | 2.4 K | 0 K | 2.6 K | 0.5 K | 2.7 K | 3.5 K | 3.2 K | 3.6 K | 6.2 K | 4.9 K | Cc1cc(Cl)c(Cl)cc1-c1cnc2nc1NCCCNS(=O)(=O)c1cccc(c1)N2
2 | 3.3 K | 4.7 K | 4.1 K | 2.1 K | 5.2 K | 4.9 K | 0.9 K | 3.8 K | 7.7 K | 7.1 K | COc1cc(-c2cnc3nc2NCCCNS(=O)(=O)c2cccc(c2)N3)ccc1Cl
3 | 0.5 K | 1.4 K | 1.6 K | 0.4 K | 0.3 K | 2.3 K | 1 K | 1.3 K | 2.4 K | 3.7 K | COC(=O)COc1ccc2cc1S(=O)(=O)NCCCNc1nc(ncc1-c1ccc(F)c(OC)c1)N2
4 | 3.1 K | 4.3 K | 3.2 K | 0.1 K | 4.3 K | 5.7 K | 3.3 K | 4.7 K | 7.5 K | 5.8 K | O=S1(=O)NCCCNc2nc(ncc2-c2cc(Cl)c(F)cc2F)Nc2cccc1c2
5 | 1.3 K | 0.6 K | 0.7 K | 0.9 K | 1.8 K | 1.6 K | 0.6 K | 2.1 K | 3 K | 3.1 K | O=S1(=O)NCCCNc2nc(ncc2-c2ccc(F)c(C(F)(F)F)c2)Nc2cccc1c2
6 | 1.9 K | 1.6 K | 5.1 K | 1.6 K | 2.4 K | 5 K | 2.5 K | 3.6 K | 6.3 K | 8.1 K | COc1cc(-c2cnc3nc2NCCCNS(=O)(=O)c2cc(ccc2Cl)N3)ccc1F
7 | 0 K | 3.1 K | 5.2 K | 0 K | 1.1 K | 6.2 K | 5.2 K | 1.7 K | 8.6 K | 8.9 K | COc1cc(-c2cnc3nc2NCCCNS(=O)(=O)c2cccc(c2)N3)ccc1C#N
8 | 2.3 K | 1.4 K | 1.4 K | 0.8 K | 4.1 K | 2.1 K | 0.6 K | 3.3 K | 4.6 K | 6.1 K | COc1ccc(-c2cnc3nc2NCCCNS(=O)(=O)c2cccc(c2)N3)cc1OC
9 | 0.7 K | 2.5 K | 2.3 K | 0.7 K | 0.8 K | 3.9 K | 1.5 K | 1.5 K | 3.5 K | 6.3 K | COc1cc(-c2cnc3nc2NCCCNS(=O)(=O)c2cc(ccc2OCC(N)=O)N3)ccc1F
10 | 3.3 K | 4.3 K | 3.4 K | 2 K | 4.7 K | 4.3 K | 3 K | 4.1 K | 6.9 K | 7.8 K | CSc1cc(-c2cnc3nc2NCCCNS(=O)(=O)c2cccc(c2)N3)ccc1F
11 | 2.2 K | 2.3 K | 1.2 K | -3.3 K | 3 K | 1.9 K | 2.7 K | 2.9 K | 5 K | 4.1 K | COc1cc(-c2cnc3nc2NCCCNS(=O)(=O)c2cccc(c2)N3)cc(F)c1F
12 | 0.8 K | 2.4 K | 2.2 K | -0.3 K | 0.7 K | 2.9 K | 2.2 K | 1.2 K | 6 K | 5.9 K | COc1cc(-c2cnc3nc2NCCCNS(=O)(=O)c2cccc(c2)N3)cc(OC)c1OC
13 | 4.9 K | 3 K | 2.9 K | -2 K | 10.7 K | 4.1 K | 4 K | 6.5 K | 7.8 K | 6.4 K | O=S1(=O)NCCCNc2nc(ncc2-c2ccc(F)c(O)c2)Nc2cccc1c2
